Values quoted from earlier work in patent US20250074868A1, “POLYHYDROXYLATED PHOTOINITIATORS” (Arkema France, priority 2021, published 2025).

water solubility: 0.5 wt %
Compound: CC(C)(O)C(=O)c1ccc(OCCO)cc1 [SpeedCure 2959]
